This is an account of results in patent US8912124B2, “Use of derivatives of (1-cyanocyclopropyl)phenylphosphinic acid, esters thereof and/or salts thereof for enhancing tolerance in plants to abiotic stress” (Bayer Cropscience AG, priority 2010, dated 2014).

Common to all, as to assay type: in vivo
One test deals with BRSNS=Brassica napus. Briefly: Drought stress test on crop plants, spray application, efficacy (EF) on Brassica napus. The following applies: percentage reduction in intensity of damage, mean of three results. The protocol:
(§1) Seeds of monocotyledonous and dicotyledonous crop plants were placed in sandy loam in wood-fiber pots, covered with soil and cultivated in a greenhouse under good growth conditions. The test plants were treated at the early leaf stage (BBCH10-BBCH13). To ensure uniform water supply before commencement of stress, the potted plants were supplied with the maximum amount of water immediately beforehand by dam irrigation and, after application, transferred in plastic inserts in order to prevent subsequent, excessively rapid drying. The inventive compounds, formulated in the form of wettable powders (WP), wettable granules (WG), suspension concentrates (SC) or emulsion concentrates (EC), were sprayed onto the green parts of the plants as an aqueous suspension at an equivalent water application rate of 600 I/ha with addition of 0.2% wetting agent (agrotin). Substance application was followed immediately by stress treatment of the plants (cold or drought stress). For cold stress treatment, the plants are kept under the following controlled conditions: • “day”: 12 hours with illumination at 8° C. • “night”: 12 hours without illumination at 1° C.
(§2) Drought stress is induced by gradual drying out under the following conditions: • “day”: 14 hours with illumination at 26° C. • “night”: 10 hours without illumination at 18° C.
The duration of the respective stress phases was guided mainly by the state of the untreated, stressed control plants and thus varied from crop to crop. It was ended (by re-irrigating or transfer to a greenhouse with good growth conditions) as soon as irreversible damage was observed on the untreated, stressed control plants. In the case of dicotyledonous crops, for example oilseed rape and soya, the duration of the drought stress phase varied between 3 and 5 days, in the case of monocotyledonous crops, for example wheat, barley or corn, between 6 and 10 days. The duration of the cold stress phase varied between 12 and 14 days.
The end of the stress phase was followed by an approx. 5-7-day recovery phase, during which the plants were once again kept under good growth conditions in a greenhouse. In order to rule out any influence of the effects observed by any fungicidal action of the test compounds, it was additionally ensured that the tests proceed without fungal infection and without infection pressure.
After the recovery phase had ended, the intensities of damage were rated in visual comparison to untreated, unstressed controls of the same age (in the case of drought stress) or the same growth stage (in the case of cold stress). The intensity of damage was first assessed as a percentage (100%=plants have died, 0%=like control plants). These values were then used to calculate the efficacy of the test compounds (=percentage reduction in the intensity of damage as a result of substance application) by the following formula: […]
DVus: damage value of the untreated, stressed control
DVts: damage value of the plants treated with test compound
Tables A.1, A.2 and A.3 show the efficacies of selected inventive compounds of the formula (I) and of the formula (II) on different crop plants (BRSNS=Brassica napus (A.1;) TRZAS=Triticum aestivum (A.2); ZEAMX=Zea mays (A.3) under drought stress.
The values stated each represent mean values from three results of the same test.

The subject of another test is TRZAS=Triticum aestivum. Kind of test: Drought stress test on crop plants, spray application, efficacy (EF) on Triticum aestivum. The following applies: dosage 25 g/ha, percentage reduction in intensity of damage, mean of three results. The protocol: Seeds of monocotyledonous and dicotyledonous crop plants were placed in sandy loam in wood-fiber pots, covered with soil and cultivated in a greenhouse under good growth conditions. The test plants were treated at the early leaf stage (BBCH10-BBCH13). To ensure uniform water supply before commencement of stress, the potted plants were supplied with the maximum amount of water immediately beforehand by dam irrigation and, after application, transferred in plastic inserts in order to prevent subsequent, excessively rapid drying. The inventive compounds, formulated in the form of wettable powders (WP), wettable granules (WG), suspension concentrates (SC) or emulsion concentrates (EC), were sprayed onto the green parts of the plants as an aqueous suspension at an equivalent water application rate of 600 I/ha with addition of 0.2% wetting agent (agrotin). Substance application was followed immediately by stress treatment of the plants (cold or drought stress). […]
(§3) After the recovery phase had ended, the intensities of damage were rated in visual comparison to untreated, unstressed controls of the same age (in the case of drought stress) or the same growth stage (in the case of cold stress). The intensity of damage was first assessed as a percentage (100%=plants have died, 0%=like control plants). […]

Another test has as its system ZEAMX=Zea mays. Kind of test: Drought stress test on crop plants, spray application, efficacy (EF) on Zea mays. The following applies: percentage reduction in intensity of damage, mean of three results. The protocol: as §1, §2
The duration of the respective stress phases was guided mainly by the state of the untreated, stressed control plants and thus varied from crop to crop. It was ended (by re-irrigating or transfer to a greenhouse with good growth conditions) as soon as irreversible damage was observed on the untreated, stressed control plants. […]
as §3

As for `CCOP(=O)(c1cccc(OC)c1)C1(C#N)CC1` (stereo not shown) [Compound 2-19], in the test with BRSNS=Brassica napus (dosage 25 g/ha), the “EF (BRSNS)” value is recorded as above 5%.

For `CCOP(=O)(c1ccccc1)C1(C#N)CC1` (stereo not shown) [Compound 2-2, ethyl (1-cyanocyclopropyl)phenylphosphinate], the “EF (TRZAS)” value with TRZAS=Triticum aestivum is above 5%. In the test with BRSNS=Brassica napus (dosage 25 g/ha), the “EF (BRSNS)” value is recorded as above 5%. As to `CCOP(=O)(c1ccc(C)cc1)C1(C#N)CC1` (stereo not shown) [Compound 2-17], the “EF (BRSNS)” value in the test on BRSNS=Brassica napus (dosage 250 g/ha) is above 5%. Take `CCOP(=O)(c1cccc(C(=O)O)c1)C1(C#N)CC1` (stereo not shown) [Compound 2-34]: the “EF (BRSNS)” value in the test with BRSNS=Brassica napus (dosage 25 g/ha) is on record as above 5%. With `CCCOP(=O)(c1ccccc1F)C1(C#N)CC1` (stereo not shown) [Compound 2-158], in the test with ZEAMX=Zea mays (dosage 250 g/ha), the “EF (ZEAMX)” value is on record as above 5%. Moreover, the “EF (BRSNS)” value in the test with BRSNS=Brassica napus (dosage 25 g/ha) is recorded as above 5%. Take `CCCOP(=O)(c1ccccc1Cl)C1(C#N)CC1` (stereo not shown) [Compound 2-159]: the “EF (BRSNS)” value in the test with BRSNS=Brassica napus (dosage 25 g/ha) is on record as above 5%.

For `N#CC1(P(=O)(OC2CCCCC2)c2ccccc2)CC1` (stereo not shown) [Compound 2-142], the “EF (BRSNS)” value in the test with BRSNS=Brassica napus (dosage 25 g/ha) was above 5%. Consider `CCOC(=O)c1cccc(P(=O)(OCC)C2(C#N)CC2)c1` (stereo not shown) [Compound 2-37], for which the “EF (BRSNS)” value in the test on BRSNS=Brassica napus (dosage 25 g/ha) is above 5%.

In the case of `CC(C)COP(=O)(c1ccccc1)C1(C#N)CC1` (stereo not shown) [Compound 2-135], the “EF (TRZAS)” value in the test with TRZAS=Triticum aestivum is on record as above 5%. The “EF (BRSNS)” value with BRSNS=Brassica napus (dosage 25 g/ha) is recorded as above 5%.

For the compound `CCOP(=O)(c1cc(Cl)cc(Cl)c1)C1(C#N)CC1` (stereo not shown) [Compound 2-111], in the test with BRSNS=Brassica napus (dosage 25 g/ha), the “EF (BRSNS)” value is reported as above 5%.

Turning to `CCOP(=O)(c1cccc(C)c1)C1(C#N)CC1` (stereo not shown) [Compound 2-16], the “EF (BRSNS)” value with BRSNS=Brassica napus (dosage 250 g/ha) was above 5%. With `CCCOP(=O)(c1ccccc1)C1(C#N)CC1` (stereo not shown) [Compound 2-130], the “EF (ZEAMX)” value with ZEAMX=Zea mays (dosage 25 g/ha) is reported as above 5%. For the same compound, in the test with BRSNS=Brassica napus (dosage 25 g/ha), the “EF (BRSNS)” value is above 5%. Turning to `N#CC1(P(=O)(OCc2ccccc2)c2ccccc2)CC1` (stereo not shown) [Compound 2-155], in the test on ZEAMX=Zea mays (dosage 25 g/ha), the “EF (ZEAMX)” value is on record as above 5%. The “EF (BRSNS)” value in the test on BRSNS=Brassica napus (dosage 25 g/ha) is reported as above 5%. Consider `CCOP(=O)(c1ccccc1OC)C1(C#N)CC1` (stereo not shown) [Compound 2-18], for which the “EF (BRSNS)” value in the test with BRSNS=Brassica napus (dosage 25 g/ha) was above 5%.
